The results in this text go back to a melting point compilation (Tetko et al.; mined from patent text by program, amines drawn as free bases though some values may be those of a salt).

As for `COc1cc(C(C)C)c(Oc2cnc(N[C@H](C)CO)nc2N)cc1Cl`, the melting point was in the range of 111 to 117 °C.
Compound `CN(Cc1ccc(S(C)(=O)=O)c(S(N)(=O)=O)c1)S(C)(=O)=O` came in with a melting point of 165 to 169 °C.
For `CCCn1cc2c(C3C(=O)Nc4ccc(Br)cc43)nc(NCC(O)CO)nc2n1` (configuration not stated), the melting point fell in the range of 295 to 297 °C.
`COc1cc(C)c(C=CC(C)=CC=O)cc1C` returned a melting point of 90 to 92 °C.
`CC(=O)NC(=S)NCC1CC2c3cccc4c3c(cn4C)CC2N(C)C1` (configuration not stated) registered a melting point of 195 to 197 °C.
For the compound `O=C1C2CCC(N1c1ccc(F)cc1)n1c(=O)n(-c3ccccc3)c(=O)n12` (configuration not stated), the melting point is 167 to 168 °C.
In turn, `CC(C)(C)Sc1ccc(CN(O)C(N)=O)s1` came in with a melting point of 101 to 103 °C.
`O=C(O)c1sccc1SSc1ccsc1C(=O)O` showed a melting point of 256 to 257 °C.
In turn, `CC(C#N)c1cccc2c(-c3ccc(Cl)cc3)nccc12` (configuration not stated) showed a melting point of 128 to 130 °C.
In turn, `Nc1ccccc1C(=O)NCCCCN1CCC(OC(c2ccccc2)c2ccccc2)CC1` gave a melting point of 74 to 75 °C.
For `O=C(O)C1CCc2cc(O)ccc21` (configuration not stated), the melting point was 137 to 138 °C.
As to `C[C@H]1[C@@H](CO)CCN1c1ccc(C#N)c2ccccc12`, the melting point lay in the range of 158 to 159 °C.
The figure for `BrCC(=CSc1ccccc1Br)c1ccccc1` is 65 °C; for `CC(C)c1ccc(NC(=O)Oc2ccc3c(c2)CCN3Cc2ccccc2)cc1` it is 145 to 150 °C.
Turning to `O=C(O)Cc1ccc(Cc2nc3c(F)c(F)cc(F)c3s2)cc1`, the melting point lay within 173 to 175 °C.
The compound `Cc1nc(-c2ccc(C(F)(F)F)cc2)sc1C(C)(C)Oc1cccc(COC(C)(C)C(=O)O)c1` showed a melting point of 136 °C.
With `COC(=O)c1nn(C)nc1C(=O)O` the figure was 125 to 126 °C.
Regarding `CC(C)n1cc(Nc2nc(-c3ccc4cn[nH]c4c3)cn3ccnc23)cn1`, the melting point was > 250 °C.
The compound `Cc1nc(N)c2nc(CCO)n(NC3CCOCC3)c2c1C` yielded a melting point of 190 to 192 °C.
The figure for `Cc1oc(-c2ccccc2)nc1COc1ccc(COc2nn(-c3ccccc3)cc2CC(=O)O)cc1` is 151 to 152 °C.
In the case of `CCNc1cc(Oc2cccc(C(F)(F)F)c2)nc(C(=O)NN=CC(F)(F)C(F)(F)F)c1`, the melting point is 101 to 102 °C.
For the compound `Cc1nc2c3c(c(C(=O)NCC(O)CO)cc2n1C)CCC(c1ccccc1)O3` (configuration not stated), the melting point lay within 268 to 270 °C.
`COCCOc1cc(NC(=O)OC(C)(C)C)c(NC(=O)CC(=O)c2cccc(C#N)c2)cc1C#Cc1ccccc1` registered a melting point of 175 to 176 °C.
The compound `COc1ccc(CCNC(=O)CC=CCC(=O)NCCc2ccccc2)cc1OC` gave a melting point of 150 to 152 °C.
For `Cc1ccc2c(=O)c(S(=O)(=O)Cl)cn(C)c2c1`, the melting point is > 300 °C.
In turn, `COc1ccc(C(=O)Nc2ccc(C(C)(C)c3noc(COc4ccccc4)n3)cc2)cc1OC` came in with a melting point of 165 to 167 °C.
In the case of `CON(Cc1ccc(F)cc1)C(=O)c1nc2n(c(=O)c1OCc1ccccc1)CCOC2(C)C`, the melting point is 141 °C.
Regarding `COc1cccc2c(Nc3ccc(C(=O)NC4CCN(Cc5ccccc5)CC4)cc3)c(C(=O)NC3CCN(C)CC3)cnc12`, the melting point was 230 to 232 °C.
With `C=CCNc1nc(NCCCCCCCCC)c2scc(C)c2n1` the figure was 65 to 66 °C; with `N#Cc1cc(-c2ccc(Cl)cc2)nc(Oc2ccc(F)c(C(F)(F)F)c2)n1`, 131 to 132 °C.
`CC(C)(C)OC(=O)Nc1ccc(C#Cc2ccc(F)cc2)cc1NC(=O)CC(=O)c1cccc(-n2cncn2)c1`: the melting point fell in the range of 131 to 139 °C.
The compound `Cc1ccc(-c2ccccc2)cc1C#N` displayed a melting point of 71 to 73 °C.
For `Nc1cc(S(=O)(=O)c2ccccc2)ccc1Cl`, the melting point is 105 to 107 °C.
In turn, `Clc1ncc(OCc2ccccc2)c2ccccc12` showed a melting point of 97 to 98 °C.
The figure for `C[Si](C)(C)c1ccc2cc(C(=O)Nc3ccc(N4CC(O)C4)nc3)n(Cc3cccc(F)c3)c2c1` is 188 to 189 °C.
The compound `COc1nc(-n2ncc(C#N)c2N)c(C(F)(F)F)cc1Cl` gave a melting point of 163 to 165 °C.
As for `NC(=O)N1CCN(c2nn(-c3ccccc3)c3ccccc23)CC1`, the melting point was 151 to 153 °C.
On to `OCc1ccc2c(n1)C(CNCCCCCCOCCC#Cc1ccc(F)cc1)OC(c1ccccc1)O2` (configuration not stated), for which the melting point was 83 to 85 °C.
With `COc1ccc(C(=O)Nc2ccccc2)cc1NCc1cccc(C(F)(F)F)c1` the figure was 167 to 171 °C; with `CCCN(CCC)C1Cc2cccc3[nH]c(=S)n(c23)C1` (configuration not stated), 150 to 151 °C.
Compound `O=C(c1ccc(-c2cccc3ccccc23)cc1Cl)N1Cc2cccn2Cc2ccccc21` yielded a melting point of 115 to 118 °C.
On to `CCCCOc1ccc(N2CCN(c3cccc(C)c3)CC2)nn1`, for which the melting point was 105 °C.
Compound `CCS(=O)(=O)CCC(=O)NNC(=O)N1Cc2ccccc2Oc2ccc(Cl)cc21` had a melting point of 181 to 184 °C.
For `COc1ccc2c(OC)c(C(C)C)cc(Br)c2c1`, the melting point was in the range of 108 to 110 °C.
Take `N#CCCNC(=O)C1=CC(CF)(CF)Oc2ccc(C(F)(F)C(F)(F)F)cc21`: the melting point lay in the range of 144 to 145 °C.
With `CCOC(=O)c1ccc(Cn2cnc3cnccc32)cc1` the figure was 156 to 157 °C; with `CC1(C)CCSc2c(CC#Cc3ccc(C=O)cc3)cccc21`, 55 to 63 °C.
Regarding `COC(=O)COc1ccc(C(C)=O)c(C)c1`, the melting point was 49 to 50 °C.
As for `O=C1CCC(c2ccccc2)(c2ccccc2)[C@@H]2CN(C(=O)Cc3cccs3)C[C@H]12` (racemic), the melting point amounted to 206 °C.
With `O=C(O)CCc1cc2ccccc2s1` the figure was 140 to 142 °C; with `CC1(C)[C@H](C(=O)OCc2cnc(Cc3ccccc3)s2)[C@@H]1C=C(Br)Br`, 66 °C.
As to `COc1ccc(C(=O)CN2CCN(C(c3ccccc3)c3ccccc3)CC2)c(OC)c1OC`, the melting point was 119 °C.
For the compound `Cc1cccc(CC(=O)O)c1OCCCc1cn(-c2ccc(Cl)cn2)nc1C(C)(C)C`, the melting point fell in the range of 112 to 113 °C.
In turn, `CN(c1cccc2cc(-c3ncc(CS(C)(=O)=O)s3)[nH]c12)S(=O)(=O)c1cccs1` gave a melting point of 242 to 243 °C.
With `CN(C)c1nc2sc3c(NCc4cccnc4)ncnc3c2c2c1CCC(C)(C)C2` the figure was 208 to 209 °C.
Regarding `CCC(=O)C1OC(O)C(O)C1OCc1ccccc1Cl` (configuration not stated), the melting point lay within 130 to 133 °C.
In turn, `FC(F)(F)c1cccc(-c2ccnc(Nc3ccc4c(c3)OCCO4)c2)c1` gave a melting point of 139 to 140 °C.
`Cc1cc(Cl)cc(C(=O)NCC2(C)CC2)c1NC(=O)c1cc(C(F)(F)F)nn1-c1ncccc1Cl` came in with a melting point of 210 °C.
For the compound `CC(=O)OCC1OC(CCOS(C)(=O)=S)C(OC(C)=O)C(OC(C)=O)C1OC(C)=O` (configuration not stated), the melting point was in the range of 115 to 116 °C.
The compound `COc1ccc(CCN(CCc2cccc(C(F)(F)F)c2)C(=O)CCCCC(N)=O)cc1OC` had a melting point of 125 to 126 °C.
With `O=C(O)c1cc2cccc(OCc3ccccc3)c2[nH]1`, the melting point was 166 to 168 °C.
`CC(C)[C@H](NC(=O)OC(C)(C)C)[C@H](O)C(F)(F)F` returned a melting point of 87 to 88 °C.
The figure for `Cc1cc(C(=CC(=O)c2ccc(Cl)cc2)C(F)(F)F)ccc1NC(=O)OC(C)(C)C` is 72 to 74 °C; for `CC(C)(C(=O)O)c1ccc(C(=O)Nc2cn3cc(-c4ccsc4)ccc3n2)cc1` it is 304 to 306 °C; for `NC(=O)N1CC(Oc2cccc(Br)c2)C1` it is 188 to 189 °C.
Take `Nc1cc(F)nc(F)c1F`: the melting point was in the range of 94 to 96 °C.
In turn, `O=C(O)c1c(Cc2cc3c(cc2Cl)OCO3)c(-c2ccccc2)nn1CC1CCCC(C(=O)O)C1` (configuration not stated) yielded a melting point of 130 °C.
`O=C(O)CC1CCC(N2CCC(CNc3ccncc3)CC2)CC1` (configuration not stated) had a melting point of 260 °C.
With `COC(=O)C(=O)c1ccc(OCCOc2ccc3ccccc3c2)cc1F`, the melting point was 135 to 136 °C.
The figure for `Cn1c(SCCCN2CCc3ccc(C(=O)c4ccccc4)cc3C2)nnc1-c1ccccc1` is 146 to 152 °C.
In turn, `CC(C)Cc1cc2cc(OCC(=O)O)c(Cl)c(Cl)c2s1` yielded a melting point of 164 to 165 °C.
With `CC(=O)Nc1cccc(-n2nc(C#N)c(=O)n(Cc3ccc(Cl)cc3)c2=O)c1` the figure was 196 °C.
`O=C(CCCl)Nc1ccc(F)c(Cl)c1` displayed a melting point of 94 °C.
Compound `O=C(N[C@H]1CC[C@H](CCN2CCN(c3nccc4c3CCO4)CC2)CC1)c1ccc(N2CCCCC2)cc1` returned a melting point of 214 °C.
With `COC(=O)c1ccc(OCCNC(=O)C2Cc3ccccc3N2S(=O)(=O)c2ccc(-c3ccc(F)cc3)cc2)c(C)c1` (configuration not stated), the melting point lay in the range of 81 to 85 °C.
The figure for `Cc1ccc(CNc2nc(Nc3cccc(N4CCOCC4)c3)nc(OCC(F)(F)F)n2)o1` is 130 to 134 °C; for `COc1ccc(C2=NC[C@@H](OC(=O)Nc3ccccc3)[C@H](c3ccccc3)O2)cc1` (racemic) it is 132 °C; for `O=c1[nH]nc(Br)c2ccccc12` it is 268 to 271 °C.
Consider `N#Cc1cnc2ccccc2c1Nc1ccc(Cl)cc1Cl`, for which the melting point lay within 260 to 262 °C.
`O=c1ccc2ccccc2n1O` yielded a melting point of 188 °C.
As for `CC(=O)NCCCc1ccc(Cl)c2occc12`, the melting point lay in the range of 61 to 62 °C.
With `C=C(CC)C(=O)c1ccc(OCC(=O)NCCCCF)c(Cl)c1Cl` the figure was 94 to 96 °C.
With `COc1cc(CC(=O)C(CNCCOc2ccc(C(=O)O)cc2OC)NC2CC2)ccc1NC(=O)Nc1ccccc1C` (configuration not stated) the figure was 135 to 140 °C; with `O=C(O)C=CC1(Cc2ccccc2)C=CC=C(c2ccccc2)C1` (configuration not stated), 165 to 174 °C.
In the case of `COc1c(C)c(C)c(OC)c(Cc2ccccc2)c1C`, the melting point fell in the range of 53 to 54 °C.
For `COCc1cc(-c2ncc3[nH]c4cccc(Cc5ccccc5Cl)c4c3c2COC)no1`, the melting point is 178 to 180 °C.
The figure for `COc1ccc(NC(=O)c2ccc(F)c(F)c2)cc1NS(=O)(=O)c1cccc(N)c1` is 205 to 209 °C.
